Usually melting point stands for the temperature of the solid-liquid transition. The molecule `CN(C)c1ccc(CNC(=O)c2cc([N+](=O)[O-])cc([N+](=O)[O-])c2)cc1` had a melting point of 145 °C.
For the molecule `O=C(O)c1cccc2c1OCCO2`, the melting point fell in the range of 189 to 191 °C.
The molecule `Oc1ccc(-c2nnc3n2NC(c2ccco2)S3)cc1` (stereo not drawn) had a melting point of 230 °C.
`CC(=O)Oc1ccc(C(C)(C)c2ccc(OC(C)=O)cc2)cc1` had a melting point of 86 to 91 °C.
Molecule `BrCc1ccc(-n2cccn2)cc1` registered a melting point of 81 to 83 °C.
The molecule `CCCCCCCC1CCCC1` came in with a melting point of -53 °C.
Then `Cc1cc(CCl)c(C)cc1CCl`, with 132 °C; and `CCC(c1ccc2cc(OC)ccc2c1)C(C)(C)C(=O)O` (stereo not drawn), with 140 °C.
Molecule `NC(=O)C=Cc1ccccc1` showed a melting point of 149 °C.
As for `O=c1n2ccccc2nc2nc3ccccc3n12`, the melting point fell in the range of 338 to 340 °C.
Regarding `COc1ccc(/C=C(/C#N)c2nc3ccccc3c(=O)[nH]2)cc1`, the melting point came to 280 °C.
In turn, `Cc1cc(C)c(O)c(C(C)(C)C)c1` returned a melting point of 22.3 °C.
Then `Brc1cncc(-c2nnn[nH]2)c1`, with 226 °C; and `O=[N+]([O-])c1cccc(-c2nnc3n2NC(/C=C/c2ccccc2)S3)c1` (stereo not drawn), with 190 to 192 °C; and `CCCCCCCCCCCCOc1ccc(N=Cc2ccc(N(C)C)cc2)cc1`, with 94.5 °C.
In the case of `C=C1CC2C(CCC3(C)C(=O)CCC23)C2(C)C=CC(=O)C=C12` (stereo not drawn), the melting point was found to be 190 °C.
Molecule `CCOC(=O)c1cc(C(C)=O)ccc1OCC` returned a melting point of 53 °C.
Then `CC(C)Oc1ccc(S(=O)(=O)Cl)cc1`, with 33 °C.
In the case of `CC(C)(C)OC(=O)N1CCN(c2ccc(CO)cn2)CC1`, the melting point was in the range of 112 to 115 °C.
`C1COCCOCCOCCN1` registered a melting point of 53 to 55 °C.
As for `CN(C)c1ccc(/C=C(\C(N)=O)c2nc3ccccc3s2)cc1`, the melting point worked out at 210 °C.
Molecule `ClC1=C(Cl)C2(Cl)C3C(Cl)OC(Cl)C3C1(Cl)C2(Cl)Cl` (stereo not drawn) had a melting point of 121 °C.
The same measure for `CC1CCC2C(C)C3C(CC4C5CC=C6CC(O)CCC6(C)C5CCC43C)N2C1` (stereo not drawn): 218 °C.
`CC(=O)c1ccc(N2CCCCC2)cc1` came in with a melting point of 84 to 90 °C.
Turning to `CCCCCSc1nnc[nH]1`, the melting point was in the range of 47 to 48 °C.
Turning to `Cc1ccc(C)c(C(=O)CC(C)(C)C(=O)O)c1`, the melting point was in the range of 118 to 119 °C.
As for `N=c1sc(C(=O)c2cccs2)nn1-c1c(Cl)cc(Cl)cc1Cl`, the melting point is 209 °C.
`CCc1ccc(C(N)=O)cc1` displayed a melting point of 163 °C.
In turn, `Cc1ccc2cc[nH]c2c1` displayed a melting point of 31 °C.
`CC12CCC(C(C(=O)c3ccccc3)C1=O)C2(C)C` (stereo not drawn) registered a melting point of 98 °C.
Then `Cc1nn(-c2ccccc2)nc1CO`, with 75 to 76 °C; and `OCC1OC(n2cnc3c(NCc4ccccc4)ncnc32)C(O)C1O` (stereo not drawn), with 184 to 186 °C; and `Nc1nc2cc3nc(N)c(-c4ccccc4)cc3cc2cc1-c1ccccc1`, with 301 °C.
`Clc1ccc2c(c1)Oc1cc(Cl)ccc1O2` came in with a melting point of 151 °C.
`CSCC[C@@H](NC(=O)OC(C)(C)C)C(=O)O` displayed a melting point of 47 to 50 °C.
Consider `Ic1cccc(I)c1I`, for which the melting point stood at 116 °C.
As for `O=C(O)C(=Cc1ccccc1)C(=Cc1ccccc1)C(=O)O`, the melting point was 223 °C.
Molecule `CN(C(=O)COc1nc2ccccc2s1)c1ccccc1` came in with a melting point of 135 °C.
`OCCc1ccccc1` showed a melting point of -27 °C.
The molecule `Cc1nn(C)c(Cl)c1N=Nc1ccccc1` displayed a melting point of 44 to 46 °C.
The molecule `COc1ccccc1NC(C)=O` came in with a melting point of 87.5 °C.
The molecule `CC(C)(C)c1ncc(C(=O)Nc2cccc(Br)c2)nc1Cl` came in with a melting point of 105 °C.
Turning to `CN1C(c2cccnc2)N(C)[C@@H](c2ccccc2)[C@@H]1c1ccccc1`, the melting point lay within 99 to 102 °C.
Then `COc1ccc(C=O)cn1`, with 46 to 54 °C.
On to `O=C(CC(=O)C(F)(F)F)c1ccco1`, for which the melting point was 20.5 °C.
`Nc1c([N+](=O)[O-])ccc(Oc2ccccc2)c1Cl` gave a melting point of 81.5 °C.
In turn, `CC(=O)Nc1cc(NC(C)=O)c(OCCO)cc1OCCO` registered a melting point of 206 °C.
The molecule `O=c1cc(-c2ccccc2)oc2cccc(O)c12` showed a melting point of 158 °C.
Molecule `CON=C(c1cc2ccccc2o1)c1cc2ccccc2o1` yielded a melting point of 131 to 132 °C.
The same measure for `O=C1NN(c2ccccc2)C(=O)C1=CNc1ccccc1`: 276 °C; for `O=C(O)C1(C(=O)O)CC1`: 134 to 138 °C.
Molecule `Cc1c(CCl)c(C)c2c(c1CCl)CC2` showed a melting point of 92 °C.
Molecule `CC1NC(=O)NC1CCCCCC(=O)O` (stereo not drawn) returned a melting point of 157 °C.
On to `c1ccc2c(c1)cc1c3ccccc3c3cccc4ccc2c1c43`, for which the melting point came to 234 °C.
Molecule `O=[N+]([O-])c1cccc(OCCCCBr)c1` came in with a melting point of 62 to 63 °C.
Molecule `C#CC(C)(CC)OC(=O)c1ccccc1C(=O)O` (stereo not drawn) yielded a melting point of 97 °C.
The same measure for `C1=C(c2ccccc2)Cc2ccccc21`: 166 to 167 °C; for `O=C1C2ON(c3ccccc3)C(c3ccccc3)C2C(=O)N1c1ccccc1` (stereo not drawn): 151 to 152 °C.
For the molecule `O=C1OC(=O)c2c(I)c(I)c(I)c(I)c21`, the melting point worked out at 328 °C.
`C=CC1=C(C=NNc2ccc([N+](=O)[O-])cc2[N+](=O)[O-])CCCC1` returned a melting point of 152 to 153 °C.
As to `Brc1cccc2cc[nH]c12`, the melting point was in the range of 46 to 47 °C.
`O=C(O)COc1ccccc1O` had a melting point of 128 °C.
`NC12c3ccccc3C(c3ccccc31)c1ccccc12` displayed a melting point of 220 °C.
For `COc1cc2c(cc1OC)C(c1ccc(Cl)cc1)N(C(C)=O)CC2` (stereo not drawn), the melting point lay in the range of 130 to 132 °C.
`Nc1c(Br)cc(Br)cc1[N+](=O)[O-]` registered a melting point of 130 °C.
Take `CSc1nc(=O)n2ccccc2n1`: the melting point lay within 150 to 151 °C.
Molecule `ClCc1ccc(Br)cc1` displayed a melting point of 50 °C.
`COC(=O)c1ccc2c(C=O)cn(C(=O)OC(C)(C)C)c2c1` returned a melting point of 214 to 215 °C.
As to `CCCCCCCCCCCCCCCCCC[Si](OC)(OC)OC`, the melting point was determined as 15 °C.
`C#CCCCCCCCCC`: the melting point was -25 °C.
In the case of `CS(=O)(=O)c1ccc(C(=O)O)c(Cl)c1`, the melting point stood at 194 °C.
Then `c1ccc(-c2ccc3ccccc3c2)cc1`, with 104 °C; and `Cc1ccc(S(=O)(=O)Oc2c(C(=O)c3ccc(Cl)cc3Cl)c(C)nn2C)cc1`, with 118 °C; and `O=C(O)c1cc(Cl)cc(Cl)c1Cl`, with 166 °C.
`CC(=O)OC[C@H]1O[C@@H](OC(C)=O)[C@H](NC(=O)OCc2ccccc2)[C@@H](OC(C)=O)[C@@H]1OC(C)=O` came in with a melting point of 150 °C.
`COc1ccccc1C=C(C(=O)O)c1ccccc1`: the melting point is 158 °C.
`CNC(=S)Nc1cc(OC)c(OC)cc1C(c1ccc(C)o1)c1ccc(C)o1` displayed a melting point of 165 °C.
In turn, `O=[N+]([O-])OC1COC2C(O[N+](=O)[O-])COC12` (stereo not drawn) yielded a melting point of 61 °C.
Molecule `O=[N+]([O-])CC(O)C(Cl)(Cl)Cl` (stereo not drawn) came in with a melting point of 45.5 °C.
The same measure for `COC(=O)c1ccc(C)c(OC)c1`: 49 °C.
`O=[N+]([O-])c1cccc(OCCN2CCOCC2)c1` gave a melting point of 50 to 53 °C.
Turning to `NC(CN(Cc1ccccc1)c1ccccc1)=NO`, the melting point was determined as 107 °C.
`O=C(O)CS(=O)(=O)C=Cc1ccccc1` yielded a melting point of 151 to 154 °C.
Take `Cc1cc(S(=O)(=O)Cl)c(Cl)cc1Cl`: the melting point was determined as 72 °C.
Then `CC12CCC3C(C1CCC2=O)C1(CC2CC(=O)CCC23C)OCCO1` (stereo not drawn), with 205 to 208 °C.
For the molecule `CC(Oc1ccc(Oc2ncc(C(F)(F)F)cc2Cl)cc1)C(=O)O` (stereo not drawn), the melting point was 108 °C.
Then `CC(C)N1CSc2nnc(-c3cccnc3)n2C1`, with 289 °C; and `COc1cc(O)c(C(C)=O)c(O)c1`, with 144 to 149 °C.
As for `CCCCCCCC/C=C\CCCCCCCCCCCC(=O)O`, the melting point amounted to 33.5 °C.
The same measure for `COC(=O)C(c1ccccc1Cl)N1CCc2sccc2C1` (stereo not drawn): 158 °C; for `CC1=C(c2ccccc2)Cc2ccccc21`: 75 °C; for `C=Cc1ccccc1[N+](=O)[O-]`: 13 °C.
Consider `Nc1nc(-c2ccc(Cl)cc2)cs1`, for which the melting point was found to be 169 °C.
As to `COc1cc(O)c(C(C)=O)c(OC)c1`, the melting point was 82 °C.
`CCc1nnc(-c2ccccn2)nc1CC` showed a melting point of 70 °C.
`CCOC(=O)c1c(-c2ccc(-c3ccccc3)cc2)csc1N` showed a melting point of 155 to 157 °C.
Consider `NC(c1ccccc1)(c1ccccc1)c1ccccc1`, for which the melting point is 102 °C.
`OCc1cc(Cl)ccc1Cl` registered a melting point of 78 °C.
For the molecule `O=[N+]([O-])c1ccc(Cl)nc1Cl`, the melting point was determined as 64 °C.
Then `CCC(Cc1c(I)cc(I)c(N)c1I)C(=O)O` (stereo not drawn), with 155 °C; and `CC12CCC(=O)C=C1CCC1C2C(O)CC2(C)C1CCC2(O)C(=O)CO` (stereo not drawn), with 223 °C; and `Nc1nnc(-c2ccccc2)c(Nc2ccc(Br)cc2)n1`, with 203 °C.
In turn, `CCS(=O)(=O)c1nnc(N(C)C(=O)NC)s1` returned a melting point of 156 °C.
`Cc1cccc(/N=N/c2c(C)[nH]c(=S)c(C#N)c2C)c1C`: the melting point stood at 259 °C.
`CC(C)(C)N(NC(=O)c1ccccc1)C(=O)c1ccc(Cl)cc1Cl` showed a melting point of 134 °C.
The molecule `Clc1cccnc1Br` had a melting point of 60 °C.
As for `CC(=O)OCc1cn(C(C)=O)c2ccccc12`, the melting point is 85 to 86 °C.
The same measure for `Nc1ncnc2c1ncn2C1OC(CI)C(O)C1O` (stereo not drawn): 178 to 187 °C.

(Values after a melting point compilation (Tetko et al.).)
